{
  "source": "ChEMBL document CHEMBL6153141",
  "about": "“Design, Synthesis, and Mechanism Study of Novel BMX Inhibitors Based on the Core of 1,3,5-Triazin-2-Amine for the Treatment of Gastric Carcinoma” (J Med Chem, 2025)",
  "key": {"[1]": {"system": "HeLa", "experiment": "Anticancer activity against human HeLa cells assessed as inhibition of cell proliferation incubated for 72 hrs by MTT assay", "assay_type": "functional, cell-based"}, "[2]": {"system": "AGS", "experiment": "Anticancer activity against human AGS cells assessed as inhibition of cell proliferation incubated for 72 hrs by MTT assay", "assay_type": "functional, cell-based"}, "[3]": {"system": "PC-3", "experiment": "cells", "conditions": "Homo sapiens, PC-3, 72 h", "description": "Anticancer activity against human PC-3 cells assessed as inhibition of cell proliferation incubated for 72 hrs by MTT assay"}, "[4]": {"system": "HGC-27", "experiment": "Anticancer activity against human HGC-27 cells assessed as inhibition of cell proliferation incubated for 72 hrs by MTT assay", "assay_type": "functional, cell-based", "conditions": "HGC-27, 72 h"}, "[5]": {"system": "MGC-803", "experiment": "Induction of apoptosis in human MGC-803 cells assessed as increase in cleaved PARP level incubated for 48 hrs by Western blot analysis", "assay_type": "functional, cell-based", "conditions": "dose 10-20 µM"}, "[6]": {"system": "HGC-27", "experiment": "Anti-invasive activity in human HGC-27 cells assessed as decrease in invasion ability at 5 to 15 uM incubated for 48 hrs by transwell assay", "assay_type": "functional, cell-based", "conditions": "dose 5-15 µM"}, "[7]": {"target": "Tyrosine-protein kinase ITK/TSK (Homo sapiens, UniProt Q08881)", "sequence (Q08881 whole entry)": "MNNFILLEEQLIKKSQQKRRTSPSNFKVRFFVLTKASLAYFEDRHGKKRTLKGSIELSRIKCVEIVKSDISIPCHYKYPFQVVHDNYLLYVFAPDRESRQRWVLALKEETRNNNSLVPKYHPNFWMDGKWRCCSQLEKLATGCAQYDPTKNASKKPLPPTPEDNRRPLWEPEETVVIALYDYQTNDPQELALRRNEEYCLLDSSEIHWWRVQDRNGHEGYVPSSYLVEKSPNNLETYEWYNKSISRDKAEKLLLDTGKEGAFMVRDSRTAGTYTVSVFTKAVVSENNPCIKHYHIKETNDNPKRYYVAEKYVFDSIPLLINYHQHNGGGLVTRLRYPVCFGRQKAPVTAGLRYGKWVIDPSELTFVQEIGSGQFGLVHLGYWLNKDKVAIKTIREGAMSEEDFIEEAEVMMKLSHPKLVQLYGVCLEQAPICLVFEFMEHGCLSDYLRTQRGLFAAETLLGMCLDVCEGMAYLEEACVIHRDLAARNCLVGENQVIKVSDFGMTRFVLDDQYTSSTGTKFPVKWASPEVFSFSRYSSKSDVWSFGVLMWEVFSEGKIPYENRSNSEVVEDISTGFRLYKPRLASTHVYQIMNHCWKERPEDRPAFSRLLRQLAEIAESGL", "experiment": "Inhibition of ITK (unknown origin) in presence of ATP at Km concentration"}, "[8]": {"system": "HCC827", "experiment": "cells", "conditions": "Homo sapiens, HCC827, 72 h", "description": "Anticancer activity against human HCC827 cells assessed as inhibition of cell proliferation incubated for 72 hrs by MTT assay"}, "[9]": {"system": "MGC-803", "experiment": "Antiproliferative activity against human MGC-803 cells assessed as inhibition of cell viability incubated for 24 to 72 hrs by MTT assay", "assay_type": "functional, cell-based", "conditions": "dose <= 50.0 µM, time 24-72 hrs"}, "[10]": {"system": "HGC-27", "experiment": "Antitumor activity against human HGC-27 cells xenografted in female BALB/c nude mouse model assessed as reduction in tumor volume at 30 mg/kg/day, ip administered for 21 days", "assay_type": "functional, organism-based", "conditions": "time 21.0 day"}, "[11]": {"system": "NCI-H1975", "experiment": "cells", "conditions": "Homo sapiens, NCI-H1975, 72 h", "description": "Anticancer activity against human NCI-H1975 cells assessed as inhibition of cell proliferation incubated for 72 hrs by MTT assay"}, "[12]": {"system": "MGC-803", "experiment": "Anticancer activity against human MGC-803 cells assessed as inhibition of cell proliferation incubated for 72 hrs by MTT assay", "assay_type": "functional, cell-based", "conditions": "MGC-803, 72 h"}, "[13]": {"system": "MGC-803", "experiment": "Effect on mTOR expression in human MGC-803 cells at 10 to 20 uM incubated for 48 hrs by Western blot analysis", "assay_type": "functional, cell-based", "conditions": "dose 10-20 µM"}, "[14]": {"system": "HGC-27", "experiment": "cells", "conditions": "Homo sapiens, HGC-27, 48 h", "description": "Antiproliferative activity against human HGC-27 cells assessed as inhibition of cell viability incubated for 48 hrs by MTT assay"}, "[15]": {"system": "HGC-27", "experiment": "Effect on mTOR expression in human HGC-27 cells at 5 to 15 uM incubated for 48 hrs by Western blot analysis", "assay_type": "functional, cell-based", "conditions": "dose 5-15 µM"}, "[16]": {"system": "NCI-H460", "experiment": "cells", "conditions": "Homo sapiens, NCI-H460, 72 h", "description": "Anticancer activity against human NCI-H460 cells assessed as inhibition of cell proliferation incubated for 72 hrs by MTT assay"}, "[17]": {"experiment": "Cmax in Sprague-Dawley rat at 5 mg/kg, po or 5 mg/kg, iv measured after 24 hrs by LC-MS/MS analysis", "assay_type": "ADME, organism-based", "conditions": "in vivo"}, "[18]": {"experiment": "Cytotoxicity against H9c2 cells assessed as inhibition of cell proliferation incubated for 72 hrs by MTT assay", "assay_type": "toxicity, cell-based", "conditions": "rat"}, "[19]": {"system": "PC-9", "experiment": "cells", "conditions": "Homo sapiens, PC-9, 72 h", "description": "Anticancer activity against human PC-9 cells assessed as inhibition of cell proliferation incubated for 72 hrs by MTT assay"}, "[20]": {"system": "MGC-803", "experiment": "Cell cycle arrest in human MGC-803 cells assessed as accumulation of cells at G1 phase at 10 to 20 uM incubated for 48 hrs by flow cytometric analysis", "assay_type": "functional, cell-based", "conditions": "dose 10-20 µM"}, "[21]": {"system": "DU-145", "experiment": "cells", "conditions": "Homo sapiens, DU-145, 72 h", "description": "Anticancer activity against human DU-145 cells assessed as inhibition of cell proliferation incubated for 72 hrs by MTT assay"}, "[22]": {"target": "Receptor tyrosine-protein kinase erbB-4 (Homo sapiens, UniProt Q15303)", "sequence (Q15303 whole entry)": "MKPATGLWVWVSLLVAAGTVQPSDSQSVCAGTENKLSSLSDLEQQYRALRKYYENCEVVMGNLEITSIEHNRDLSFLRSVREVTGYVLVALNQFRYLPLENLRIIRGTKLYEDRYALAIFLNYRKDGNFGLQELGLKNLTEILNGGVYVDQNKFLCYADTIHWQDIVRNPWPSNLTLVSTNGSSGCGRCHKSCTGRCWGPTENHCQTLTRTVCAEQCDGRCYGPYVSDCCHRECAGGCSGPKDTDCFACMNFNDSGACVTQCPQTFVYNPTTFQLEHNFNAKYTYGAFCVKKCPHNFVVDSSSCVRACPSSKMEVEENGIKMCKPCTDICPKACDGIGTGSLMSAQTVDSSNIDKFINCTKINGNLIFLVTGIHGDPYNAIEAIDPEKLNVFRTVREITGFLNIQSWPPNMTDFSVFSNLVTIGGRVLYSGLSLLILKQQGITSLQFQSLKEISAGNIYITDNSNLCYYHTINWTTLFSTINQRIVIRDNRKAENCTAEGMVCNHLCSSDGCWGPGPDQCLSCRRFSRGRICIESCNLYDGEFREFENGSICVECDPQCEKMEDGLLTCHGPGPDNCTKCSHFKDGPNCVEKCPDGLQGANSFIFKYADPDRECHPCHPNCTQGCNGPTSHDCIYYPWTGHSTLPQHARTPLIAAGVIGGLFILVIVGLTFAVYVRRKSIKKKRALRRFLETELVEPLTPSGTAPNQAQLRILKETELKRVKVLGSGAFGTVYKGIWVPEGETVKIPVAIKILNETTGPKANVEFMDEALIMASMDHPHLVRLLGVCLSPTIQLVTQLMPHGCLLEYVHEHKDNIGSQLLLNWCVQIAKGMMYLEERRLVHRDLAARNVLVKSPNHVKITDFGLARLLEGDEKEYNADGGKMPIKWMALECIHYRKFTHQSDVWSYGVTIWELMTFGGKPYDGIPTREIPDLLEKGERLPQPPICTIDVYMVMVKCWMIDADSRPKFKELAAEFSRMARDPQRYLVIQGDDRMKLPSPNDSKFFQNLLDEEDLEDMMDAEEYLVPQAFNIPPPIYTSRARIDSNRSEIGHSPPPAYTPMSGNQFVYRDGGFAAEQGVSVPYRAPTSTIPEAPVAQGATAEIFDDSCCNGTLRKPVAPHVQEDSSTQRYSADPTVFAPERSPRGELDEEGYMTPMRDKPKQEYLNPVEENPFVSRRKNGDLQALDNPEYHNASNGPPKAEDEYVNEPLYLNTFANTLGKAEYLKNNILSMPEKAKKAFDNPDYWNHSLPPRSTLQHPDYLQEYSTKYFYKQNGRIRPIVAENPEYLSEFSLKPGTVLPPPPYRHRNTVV", "experiment": "Inhibition of HER4 (unknown origin) in presence of ATP at Km concentration"}, "[23]": {"system": "MGC-803", "experiment": "Induction of autophagy in human MGC-803 cells assessed as decrease in p62 protein expression incubated for 48 hrs by Western blot analysis", "assay_type": "functional, cell-based", "conditions": "dose 10-20 µM"}, "[24]": {"experiment": "Tmax in Sprague-Dawley rat at 5 mg/kg, po or 5 mg/kg, iv measured after 24 hrs by LC-MS/MS analysis", "assay_type": "ADME, organism-based", "conditions": "in vivo"}, "[25]": {"experiment": "Metabolic stability in rat liver microsomes assessed as intrinsic clearance at 100 uM measured upto 60 mins in presence of NADPH by LC-MS/MS analysis", "assay_type": "ADME, Microsome", "conditions": "read-out: CLH"}, "[26]": {"system": "HGC-27", "experiment": "Induction of apoptosis in human HGC-27 cells assessed as increase in apoptotic cells at 5 to 15 uM incubated for 48 hrs by Annexin V-FITC/PI staining based flow cytometric analysis", "assay_type": "functional, cell-based", "conditions": "dose 5-15 µM"}, "[27]": {"experiment": "Toxicity in female BALB/c nude mouse model xenografted with human HGC-27 cells assessed as effect on liver at 30 mg/kg, ip administered for 21 days by H and E staining based analysis", "assay_type": "organism-based", "conditions": "in vivo, 504 h, time 21 day"}, "[28]": {"system": "HCT-116", "experiment": "Anticancer activity against human HCT-116 cells assessed as inhibition of cell proliferation incubated for 72 hrs by MTT assay", "assay_type": "functional, cell-based", "conditions": "HCT-116, 72 h"}, "[29]": {"target": "Cytochrome P450 3A4 (Homo sapiens, UniProt P08684)", "sequence (P08684 whole entry)": "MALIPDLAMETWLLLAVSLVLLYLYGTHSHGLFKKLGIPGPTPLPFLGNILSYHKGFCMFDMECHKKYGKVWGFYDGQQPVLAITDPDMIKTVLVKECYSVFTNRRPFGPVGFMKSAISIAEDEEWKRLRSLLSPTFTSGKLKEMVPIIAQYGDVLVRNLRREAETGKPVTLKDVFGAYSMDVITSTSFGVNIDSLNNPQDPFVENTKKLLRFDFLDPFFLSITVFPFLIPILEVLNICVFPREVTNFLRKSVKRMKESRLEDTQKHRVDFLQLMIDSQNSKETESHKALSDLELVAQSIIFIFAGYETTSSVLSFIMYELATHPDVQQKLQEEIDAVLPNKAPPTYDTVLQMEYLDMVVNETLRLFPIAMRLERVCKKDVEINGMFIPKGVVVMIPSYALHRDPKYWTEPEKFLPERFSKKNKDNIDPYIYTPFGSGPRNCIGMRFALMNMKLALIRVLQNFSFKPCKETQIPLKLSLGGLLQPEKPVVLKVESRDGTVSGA", "experiment": "Inhibition of CYP3A4 in human liver microsomes using testosterone as substrate preincubated for 5 mins followed by NADPH addition and measured after 10 mins by LC-MS/MS analysis", "assay_type": "ADME, Microsome"}, "[30]": {"target": "Cytoplasmic tyrosine-protein kinase BMX (Homo sapiens) (UniProt P51813)", "sequence (P51813 whole entry)": "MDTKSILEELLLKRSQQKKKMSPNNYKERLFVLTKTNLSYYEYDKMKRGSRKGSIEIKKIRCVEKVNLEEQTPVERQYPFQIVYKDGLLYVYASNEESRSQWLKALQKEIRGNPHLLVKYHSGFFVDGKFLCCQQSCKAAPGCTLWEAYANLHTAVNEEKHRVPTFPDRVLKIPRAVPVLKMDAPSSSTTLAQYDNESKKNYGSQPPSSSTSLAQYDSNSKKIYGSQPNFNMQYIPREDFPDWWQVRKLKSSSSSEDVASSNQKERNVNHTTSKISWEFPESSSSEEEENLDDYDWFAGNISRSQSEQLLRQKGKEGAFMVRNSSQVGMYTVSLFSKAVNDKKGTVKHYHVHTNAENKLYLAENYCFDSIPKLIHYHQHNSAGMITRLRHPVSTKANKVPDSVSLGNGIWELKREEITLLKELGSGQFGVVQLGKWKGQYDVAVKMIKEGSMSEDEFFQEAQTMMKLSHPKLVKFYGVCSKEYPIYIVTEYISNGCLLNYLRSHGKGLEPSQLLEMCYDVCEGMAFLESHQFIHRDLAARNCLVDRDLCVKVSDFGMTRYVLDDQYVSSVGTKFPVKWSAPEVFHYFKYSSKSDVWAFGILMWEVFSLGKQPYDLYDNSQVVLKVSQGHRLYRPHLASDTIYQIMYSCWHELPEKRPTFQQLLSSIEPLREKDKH", "experiment": "Irreversible inhibition of BMX in human HGC-27 cells at 15 uM preincubated for 48 hrs followed by compound washout and measured within 6 hrs by Western blot analysis", "assay_type": "cell-based"}, "[31]": {"system": "MGC-803", "experiment": "Antiproliferative activity against human MGC-803 cells assessed as inhibition of cell viability upto 50 uM by MTT assay", "assay_type": "functional, cell-based", "conditions": "time 24-72 hrs"}, "[32]": {"system": "HGC-27", "experiment": "Induction of apoptosis in human HGC-27 cells assessed as increase in cleaved caspase 3 level incubated for 48 hrs by Western blot analysis", "assay_type": "functional, cell-based", "conditions": "dose 5-15 µM"}, "[33]": {"system": "MGC-803", "experiment": "Induction of apoptosis in LC3B knockout human MGC-803 cells assessed as increase in cleaved caspase 9 level at 20 uM by Western blot analysis", "assay_type": "functional, cell-based"}, "[34]": {"target": "Cytochrome P450 1A2 (Homo sapiens, UniProt P05177)", "sequence (P05177 whole entry)": "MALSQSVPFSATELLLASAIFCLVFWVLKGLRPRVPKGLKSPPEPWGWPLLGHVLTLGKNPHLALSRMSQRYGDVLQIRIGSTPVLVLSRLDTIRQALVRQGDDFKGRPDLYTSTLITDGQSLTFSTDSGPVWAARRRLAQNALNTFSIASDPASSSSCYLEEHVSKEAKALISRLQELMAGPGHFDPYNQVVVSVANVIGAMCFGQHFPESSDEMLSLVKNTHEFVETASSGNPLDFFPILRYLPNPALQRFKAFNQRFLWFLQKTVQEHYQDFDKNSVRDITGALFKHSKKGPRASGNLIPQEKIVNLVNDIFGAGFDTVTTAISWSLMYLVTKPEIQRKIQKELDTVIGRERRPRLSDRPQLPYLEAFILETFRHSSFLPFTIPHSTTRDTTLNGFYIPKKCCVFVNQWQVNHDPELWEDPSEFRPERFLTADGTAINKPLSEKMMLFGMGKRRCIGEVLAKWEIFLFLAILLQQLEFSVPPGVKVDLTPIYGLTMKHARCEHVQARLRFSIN", "experiment": "Inhibition of CYP1A2 in human liver microsomes using phenacetin as substrate preincubated for 5 mins followed by NADPH addition and measured after 10 mins by LC-MS/MS analysis", "assay_type": "ADME, Microsome"}, "[35]": {"experiment": "Half-life in Sprague-Dawley rat at 5 mg/kg, po or 5 mg/kg, iv measured after 24 hrs by LC-MS/MS analysis", "assay_type": "ADME, organism-based", "conditions": "in vivo"}, "[36]": {"experiment": "Cytotoxicity against HEK293 cells assessed as inhibition of cell proliferation incubated for 72 hrs by MTT assay", "assay_type": "toxicity, cell-based", "conditions": "human"}, "[37]": {"system": "MCF7", "experiment": "Anticancer activity against human MCF7 cells assessed as inhibition of cell proliferation incubated for 72 hrs by MTT assay", "assay_type": "functional, cell-based", "conditions": "MCF7, 72 h"}, "[38]": {"system": "MGC-803", "experiment": "Induction of apoptosis in human MGC-803 cells assessed as increase in cleaved caspase 9 level incubated for 48 hrs by Western blot analysis", "assay_type": "functional, cell-based", "conditions": "dose 10-20 µM"}, "[39]": {"experiment": "Toxicity in female BALB/c nude mouse model xenografted with human HGC-27 cells assessed as body weight loss at 30 mg/kg, ip administered for 21 days", "assay_type": "organism-based", "conditions": "in vivo, 504 h, time 21 day"}, "[40]": {"system": "MGC-803", "experiment": "Inhibition of AKT-mTOR signaling in human […] cells assessed as decrease in phosphorylated mTOR expression at 10 to 20 uM incubated for 48 hrs by Western blot analysis", "assay_type": "cell-based", "conditions": "dose 10-20 µM"}, "[41]": {"system": "HGC-27", "experiment": "Downregulation of BMX protein expression in human HGC-27 cells incubated for 48 hrs by Western blot analysis", "assay_type": "functional, cell-based", "conditions": "dose 5-15 µM"}},
  "note": "The source made the active and inactive calls. The calls are words filed in the database; no cut-off is given here.",
  "data": [
    {"smiles": "C=CS(=O)(=O)N1CCC[C@@H](Nc2nc(N)nc(Nc3cccc(Oc4ccccc4)c3)n2)C1", "values": [
      {"measurement": "IC50", "setting": "[1]", "value": 6.5, "unit": "µM"},
      {"measurement": "IC50", "setting": "[2]", "value": 8, "unit": "µM"},
      {"measurement": "IC50", "setting": "[3]", "value": 17.2, "unit": "µM"},
      {"measurement": "IC50", "setting": "[4]", "value": 9.6, "unit": "µM"},
      {"measurement": "Activity", "setting": "[5]", "value": "Dose-dependent-effect"},
      {"measurement": "Activity", "setting": "[6]", "value": "Active"},
      {"measurement": "IC50", "setting": "[7]", "value": "> 1", "unit": "µM"},
      {"measurement": "IC50", "setting": "[8]", "value": 5.7, "unit": "µM"},
      {"measurement": "Activity", "setting": "[9]", "value": "Dose-dependent-effect"},
      {"measurement": "Activity", "setting": "[10]", "value": "Active"},
      {"measurement": "IC50", "setting": "[11]", "value": 5, "unit": "µM"},
      {"measurement": "IC50", "setting": "[12]", "value": 14.4, "unit": "µM"},
      {"measurement": "Activity", "setting": "[13]", "value": "inactive"},
      {"measurement": "IC50", "setting": "[14]", "value": 10.5, "unit": "µM"},
      {"measurement": "Activity", "setting": "[15]", "value": "inactive"},
      {"measurement": "IC50", "setting": "[16]", "value": 16.7, "unit": "µM"},
      {"measurement": "Cmax", "setting": "[17]", "value": 73.5, "unit": "ng/mL"},
      {"measurement": "IC50 at 72 h", "setting": "[18]", "value": "> 32", "unit": "µM"},
      {"measurement": "IC50", "setting": "[19]", "value": 23.3, "unit": "µM"},
      {"measurement": "Activity", "setting": "[20]", "value": "Active"},
      {"measurement": "IC50", "setting": "[21]", "value": 10.4, "unit": "µM"},
      {"measurement": "IC50", "setting": "[22]", "value": "> 1", "unit": "µM"},
      {"measurement": "Activity", "setting": "[23]", "value": "Dose-dependent-effect"},
      {"measurement": "Tmax", "setting": "[24]", "value": 6, "unit": "min"},
      {"measurement": "microsomal CLint at 100 µM", "setting": "[25]", "value": 304, "unit": "µL/min/mg"},
      {"measurement": "Activity", "setting": "[26]", "value": "Active"},
      {"measurement": "Activity", "setting": "[27]", "value": "Non-toxic"},
      {"measurement": "IC50", "setting": "[28]", "value": 15.9, "unit": "µM"},
      {"measurement": "IC50", "setting": "[29]", "value": "> 100", "unit": "µM"},
      {"measurement": "inhibition", "setting": "[30]", "value": "Active"},
      {"measurement": "Activity", "setting": "[31]", "value": "Time-dependent-effect"},
      {"measurement": "Activity", "setting": "[32]", "value": "Dose-dependent-effect"},
      {"measurement": "Activity", "setting": "[33]", "value": "Active"},
      {"measurement": "IC50", "setting": "[34]", "value": "> 100", "unit": "µM"},
      {"measurement": "half-life", "setting": "[35]", "value": 18.3, "unit": "h"},
      {"measurement": "IC50 at 72 h", "setting": "[36]", "value": "> 32", "unit": "µM"},
      {"measurement": "IC50", "setting": "[37]", "value": 8.3, "unit": "µM"},
      {"measurement": "Activity", "setting": "[38]", "value": "Dose-dependent-effect"},
      {"measurement": "Activity", "setting": "[39]", "value": "Non-toxic"},
      {"measurement": "inhibition", "setting": "[40]", "value": "Active"},
      {"measurement": "Activity", "setting": "[41]", "value": "Dose-dependent-effect"}
    ]}
  ]
}
